The results in this text go back to patent US7879881B2, “Piperidinyl compounds that selectively bind integrins” (Janssen Pharmaceutica NV, priority 2002, dated 2011).

For one assay, the target named is T1, Human αvβ3 (Homo sapiens, UniProt P05106+P06756).
T1 construct: purchased Chemicon International Inc., Temecula, Calif
Description: In Vitro Solid Phase Purified αvβ3 Binding Assay (vitronectin/αvβ3). Conditions: vitronectin binding to immobilized purified human αvβ3, mean ± spread. The procedure: In Vitro Solid Phase Purified αvβ3 Binding Assay
(§1) Human αvβ3 (Chemicon International Inc., Temecula, Calif.), at a concentration of 1 μg/ml dissolved in Tris buffer (20 mM Tris, 1 mM CaCl2, 1 mM MgCl2, 10 μM MnCl2, 150 mM NaCl), was immobilized on Immulon 96 well plates (Dynex Technologies, Chantilly, Va.) overnight at 4° C. Plates were washed and treated with blocking buffer (3% BSA in Tris buffer) for 2 h at 37° C. Plates were then rinsed 2 times with assay buffer comprised of Tris buffer. Synthesized compounds were added to wells in duplicate immediately prior to the addition of 2 nM vitronectin (Sigma, St. Louis, Mo.). Following a 3 hour incubation at 37° C., plates were washed 5 times in assay buffer. An anti-human vitronectin IgG rabbit polyclonal antibody (Calbiochem, San Diego, Calif.) was added (1:2000) and plates were incubated for 1 hour at room temperature. VectaStain ABC peroxidase kit reagents (Vector Laboratories, Burlingame, Calif.) employing a biotin labeled anti-rabbit IgG, were utilized for detection of bound antibody. Plates were read at 490 nm on a Molecular Devices (Sunnyvale, Calif.) microplate reader.

A further assay concerns the target GP IIb/IIIa (Homo sapiens, UniProt P05106+P08514). Description: In Vitro Solid Phase Purified GP IIb/IIIa Binding Assay (biotinylated fibrinogen). The note with it: biotinylated fibrinogen binding to immobilized purified GP IIb/IIIa, mean ± spread. The procedure:
In Vitro Solid Phase Purified GP IIb/IIIa Binding Assay
The plate was covered and incubated overnight at 4° C. The GP IIb/IIIa solution was discarded and 150 μL of 5% BSA was added and incubated at RT for 1-3 h. The plate was washed extensively with modified Tyrodes buffer. Biotinylated fibrinogen (25 μL/well) at 2× final concentration was added to the wells that contain the test compounds (25 μL/well). The plate was covered and incubated at RT for 2-4 h. Twenty minutes prior to incubation completion, one drop of Reagent A (VectaStain ABC Horseradish Peroxidase kit, Vector Laboratories, Inc.) and one drop Reagent B were added with mixing to 5 mL modified Tyrodes buffer mix and let stand. The ligand solution was discarded and the plate washed (5×200 μL/well) with modified Tyrodes buffer. […] The Vecta Stain solution was discarded and the wells washed (5×200 μL/well) with modified Tyrodes buffer. Developing buffer (10 mL of 50 mM citrate/phosphate buffer @ pH 5.3, 6 mg o-phenylenediamine, 6 μL 30% H2O2; 50 μL/well) was added and incubated at RT for 3-5 min and then 2 N H2SO4 (50 μL/well) was added.

Another assay addresses T2, human purified αVβ5 (Homo sapiens, UniProt P06756+P18084).
T2 construct: purchased Chemicon International, Inc
Description: In Vitro Solid Phase Purified αcβ5 Binding Assay (vitronectin/αVβ5). Conditions: vitronectin binding to immobilized purified human αVβ5, mean ± spread. The procedure:
as §1
In Vitro Solid Phase Purified αcβ5 Binding Assay
All other aspects of the assay including buffers, reagents and incubation times remain unchanged.

Where two headings read alike, the source gives them in different places. A value given as a limit tells only on which side of the number the result lay.

T2 sequence (P06756 31-889 limits assumed): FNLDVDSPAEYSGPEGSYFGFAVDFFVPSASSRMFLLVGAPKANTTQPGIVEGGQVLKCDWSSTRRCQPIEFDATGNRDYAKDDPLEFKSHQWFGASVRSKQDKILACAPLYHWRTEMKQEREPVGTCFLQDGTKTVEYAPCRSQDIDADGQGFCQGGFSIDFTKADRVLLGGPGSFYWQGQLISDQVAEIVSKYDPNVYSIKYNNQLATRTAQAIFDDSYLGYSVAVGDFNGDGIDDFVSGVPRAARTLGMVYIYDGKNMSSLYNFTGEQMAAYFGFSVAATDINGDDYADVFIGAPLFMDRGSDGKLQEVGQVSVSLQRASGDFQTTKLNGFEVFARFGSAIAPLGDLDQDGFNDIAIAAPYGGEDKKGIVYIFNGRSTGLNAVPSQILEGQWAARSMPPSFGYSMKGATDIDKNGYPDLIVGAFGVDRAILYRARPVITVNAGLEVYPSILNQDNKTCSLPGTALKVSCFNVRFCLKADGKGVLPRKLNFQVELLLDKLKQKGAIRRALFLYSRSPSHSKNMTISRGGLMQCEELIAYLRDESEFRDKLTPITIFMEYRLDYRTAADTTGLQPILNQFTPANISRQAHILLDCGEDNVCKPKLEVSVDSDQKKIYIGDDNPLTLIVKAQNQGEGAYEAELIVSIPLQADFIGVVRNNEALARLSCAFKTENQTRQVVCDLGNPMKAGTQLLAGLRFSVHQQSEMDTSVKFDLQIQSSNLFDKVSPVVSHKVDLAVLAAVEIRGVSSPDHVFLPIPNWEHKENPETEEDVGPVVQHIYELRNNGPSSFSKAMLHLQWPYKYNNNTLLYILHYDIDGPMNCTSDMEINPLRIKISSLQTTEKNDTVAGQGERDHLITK
T2 sequence (P06756 891-1048 partner limits assumed): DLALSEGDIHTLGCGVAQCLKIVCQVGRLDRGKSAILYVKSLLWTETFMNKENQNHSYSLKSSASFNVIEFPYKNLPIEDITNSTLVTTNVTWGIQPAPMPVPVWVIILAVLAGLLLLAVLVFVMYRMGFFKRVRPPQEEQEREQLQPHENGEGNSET
T2 sequence (P18084 24-799): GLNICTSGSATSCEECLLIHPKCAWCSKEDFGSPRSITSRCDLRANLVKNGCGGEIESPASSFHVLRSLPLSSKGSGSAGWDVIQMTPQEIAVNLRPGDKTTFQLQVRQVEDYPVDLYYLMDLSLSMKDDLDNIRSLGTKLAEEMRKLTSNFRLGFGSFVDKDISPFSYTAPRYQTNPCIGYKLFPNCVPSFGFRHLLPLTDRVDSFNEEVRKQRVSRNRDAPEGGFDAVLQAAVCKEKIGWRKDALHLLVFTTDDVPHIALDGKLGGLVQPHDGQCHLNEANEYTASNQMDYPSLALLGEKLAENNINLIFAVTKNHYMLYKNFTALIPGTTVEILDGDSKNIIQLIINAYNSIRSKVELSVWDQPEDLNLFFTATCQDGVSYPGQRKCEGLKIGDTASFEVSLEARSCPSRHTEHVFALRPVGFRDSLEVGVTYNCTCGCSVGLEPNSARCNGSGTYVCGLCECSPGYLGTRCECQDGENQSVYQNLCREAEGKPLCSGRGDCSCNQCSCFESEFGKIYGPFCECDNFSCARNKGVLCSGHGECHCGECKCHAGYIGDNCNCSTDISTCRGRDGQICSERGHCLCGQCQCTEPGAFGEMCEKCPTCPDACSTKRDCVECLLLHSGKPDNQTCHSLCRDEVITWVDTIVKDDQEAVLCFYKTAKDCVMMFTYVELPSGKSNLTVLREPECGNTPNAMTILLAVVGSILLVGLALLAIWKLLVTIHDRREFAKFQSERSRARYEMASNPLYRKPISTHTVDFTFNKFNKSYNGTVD
T1 sequence (P06756 31-889 limits assumed): as the sequence (P06756 31-889 limits assumed) above
T1 sequence (P06756 891-1048 partner limits assumed): as the sequence (P06756 891-1048 partner limits assumed) above
T1 sequence (P05106 27-788): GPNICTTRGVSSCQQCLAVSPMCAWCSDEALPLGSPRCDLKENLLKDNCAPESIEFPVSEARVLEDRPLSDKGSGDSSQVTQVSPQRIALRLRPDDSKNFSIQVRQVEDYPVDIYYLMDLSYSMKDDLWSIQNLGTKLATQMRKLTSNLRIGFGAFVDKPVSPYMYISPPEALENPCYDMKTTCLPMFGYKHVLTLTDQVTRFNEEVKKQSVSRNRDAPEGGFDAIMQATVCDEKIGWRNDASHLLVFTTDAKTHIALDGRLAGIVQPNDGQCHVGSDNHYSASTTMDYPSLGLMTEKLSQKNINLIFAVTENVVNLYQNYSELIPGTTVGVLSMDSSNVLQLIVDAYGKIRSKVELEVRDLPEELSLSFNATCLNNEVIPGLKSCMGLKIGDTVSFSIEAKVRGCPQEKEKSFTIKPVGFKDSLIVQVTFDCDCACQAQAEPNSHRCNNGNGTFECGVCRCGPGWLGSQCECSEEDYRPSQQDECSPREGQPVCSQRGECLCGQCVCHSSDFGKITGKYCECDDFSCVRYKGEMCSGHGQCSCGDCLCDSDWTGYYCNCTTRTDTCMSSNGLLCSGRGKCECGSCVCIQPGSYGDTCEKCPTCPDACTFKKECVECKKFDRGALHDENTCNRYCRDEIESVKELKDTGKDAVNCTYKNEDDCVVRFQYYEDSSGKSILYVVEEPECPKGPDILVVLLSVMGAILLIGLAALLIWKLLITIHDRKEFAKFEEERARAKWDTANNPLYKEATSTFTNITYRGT
Chain of GP IIb/IIIa (P08514 32-887 limits assumed): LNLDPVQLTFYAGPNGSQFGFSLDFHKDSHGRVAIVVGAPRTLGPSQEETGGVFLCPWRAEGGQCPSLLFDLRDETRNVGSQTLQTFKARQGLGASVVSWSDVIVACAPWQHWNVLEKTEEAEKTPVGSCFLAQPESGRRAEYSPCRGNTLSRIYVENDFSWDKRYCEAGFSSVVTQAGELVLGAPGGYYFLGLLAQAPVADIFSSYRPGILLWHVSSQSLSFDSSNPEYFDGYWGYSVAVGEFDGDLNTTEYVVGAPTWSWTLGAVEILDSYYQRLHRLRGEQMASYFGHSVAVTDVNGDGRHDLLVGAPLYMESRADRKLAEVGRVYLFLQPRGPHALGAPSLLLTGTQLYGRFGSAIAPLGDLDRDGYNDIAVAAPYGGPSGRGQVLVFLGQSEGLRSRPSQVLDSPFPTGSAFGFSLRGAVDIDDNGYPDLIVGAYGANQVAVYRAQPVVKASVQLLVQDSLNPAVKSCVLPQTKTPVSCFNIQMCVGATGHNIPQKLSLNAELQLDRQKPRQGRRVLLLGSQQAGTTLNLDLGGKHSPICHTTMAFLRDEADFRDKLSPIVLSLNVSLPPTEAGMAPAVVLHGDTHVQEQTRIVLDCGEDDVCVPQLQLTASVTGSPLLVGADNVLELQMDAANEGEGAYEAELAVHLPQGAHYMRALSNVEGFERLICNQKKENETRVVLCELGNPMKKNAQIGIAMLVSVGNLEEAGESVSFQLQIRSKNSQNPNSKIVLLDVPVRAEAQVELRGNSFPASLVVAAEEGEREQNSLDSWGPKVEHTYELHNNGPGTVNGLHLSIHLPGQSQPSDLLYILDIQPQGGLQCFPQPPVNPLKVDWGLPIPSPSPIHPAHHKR
Chain of GP IIb/IIIa (P08514 891-1039 partner limits assumed): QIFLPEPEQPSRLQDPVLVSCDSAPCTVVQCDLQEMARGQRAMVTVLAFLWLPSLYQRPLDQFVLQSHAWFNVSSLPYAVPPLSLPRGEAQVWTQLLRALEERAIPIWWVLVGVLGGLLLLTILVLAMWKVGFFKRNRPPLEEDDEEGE
Chain of GP IIb/IIIa (P05106 27-788): as the sequence (P05106 27-788) above

In the case of `O=C(O)CC(CC1CCN(C(=O)CCc2ccc3c(n2)NCCC3)CC1)c1ccc(OC(F)(F)F)cc1` (stereo not drawn) [Cpd 40, 1-[1-oxo-3-(5,6,7,8-tetrahydro-1,8-naphthyridin-2-yl)propyl]-β-[4-(trifluoromethoxy)phenyl]-4-piperidinebutanoic acid], the IC50 at Human αvβ3 (read-out: αvβ3IC50) came out at 0.0052 ± 0.0002 µM; at GP IIb/IIIa (read-out: αIIbβ3 IC50), 24 ± 9.89 µM; at human purified αVβ5 (read-out: αvβ5 IC50), 0.308 ± 0.063 µM.
The like results for `O=C(O)CC(c1ccc2c(c1)OCO2)C1CCN(C(=O)Cc2ccc3c(n2)NCCC3)CC1` (stereo not drawn) [Cpd 16, β-(1,3-benzodioxol-5-yl)-1-[(5,6,7,8-tetrahydro-1,8-naphthyridin-2-yl)acetyl]-4-piperidinepropanoic acid] were, in that order, 0.281 µM, 25.4 µM and 0.775 µM.
As for `O=C(O)CC(CC1CCN(C(=O)CCCc2ccc3c(n2)NCCC3)CC1)c1ccc2c(c1)OCO2` (stereo not drawn) [Cpd 26, β-(1,3-benzodioxol-5-yl)-1-[1-oxo-4-(5,6,7,8-tetrahydro-1,8-naphthyridin-2-yl)butyl]-4-piperidinebutanoic acid], the IC50 on Human αvβ3 (read-out: αvβ3IC50) turned out to be 0.0277 ± 0.0053 µM; at GP IIb/IIIa (read-out: αIIbβ3 IC50), 5.92 µM; at human purified αVβ5 (read-out: αvβ5 IC50), 0.5 µM.
The like results for `O=C(O)CC(CC1CCN(C(=O)CCc2ccc3c(n2)NCCC3)CC1)C1CNc2ccccc2C1` (single isomer, unassigned) [Cpd 19-2, 1,2,3,4-tetrahydro-β-[[1-[1-oxo-3-(5,6,7,8-tetrahydro-1,8-naphthyridin-2-yl)propyl]-4-piperidinyl]methyl]-3-quinolinepropanoic acid] were, in that order, 0.0013 ± 0.0001 µM, 12.9 µM and 0.0092 ± 0.0004 µM.
`COc1ccc(C(CC(=O)O)CC2CCN(C(=O)CCc3ccc4c(n3)NCCC4)CC2)cn1` (single isomer, unassigned) [Cpd 28a, 6-methoxy-β-[[1-[1-oxo-3-(5,6,7,8-tetrahydro-1,8-naphthyridin-2-yl)propyl]-4-piperidinyl]methyl]-3-pyridinepropanoic acid]: the IC50 on Human αvβ3 (read-out: αvβ3IC50) is 0.0003 ± 0.0002 µM; at GP IIb/IIIa (αIIbβ3 IC50 (uM)), 1.83 ± 0.57 µM; on human purified αVβ5 (read-out: αvβ5 IC50) it was 0.0042 ± 0.0018 µM.
`COc1ccc(C(CC(=O)O)CC2CCN(C(=O)CCc3ccc4c(n3)NCCC4)CC2)cn1` (stereo not drawn) [Cpd 28, 6-methoxy-β-[[1-[1-oxo-3-(5,6,7,8-tetrahydro-1,8-naphthyridin-2-yl)propyl]-4-piperidinyl]methyl]-3-pyridinepropanoic acid]: the IC50 on Human αvβ3 (αvβ3IC50 (uM)) was 0.0007 ± 0.0002 µM; on GP IIb/IIIa (αIIbβ3 IC50 (uM)), 6.1 ± 2.44 µM; on human purified αVβ5 (αvβ5 IC50 (uM)), 0.0027 ± 0.0008 µM.
On to `O=C(O)CC(CC1CCN(C(=O)c2cccc(NC3=NCCN3)c2)CC1)c1cccc(F)c1` (racemic) [Cpd 77], for which the IC50 amounted to 0.138 µM at Human αvβ3 (read-out: αvβ3IC50) and 0.789 ± 0.065 µM at human purified αVβ5 (read-out: αvβ5 IC50).
As for `O=C(O)CC(CC1CCN(C(=O)CCc2ccc3c(n2)NCCC3)CC1)c1ccc2c(c1)OCC2` (single isomer, unassigned) [Cpd 36a, 3-(2,3-Dihydro-benzofuran-6-yl)-4-[1-(3-5,6,7,8-tetrahydro-[1,8]naphthyridin-2-yl-propionyl)-piperidin-4-yl]-butyric acid], the IC50 on Human αvβ3 (read-out: αvβ3IC50) worked out at 0.0004 µM; at GP IIb/IIIa (read-out: αIIbβ3 IC50), 0.79 ± 0.05 µM; at human purified αVβ5 (read-out: αvβ5 IC50), 0.0009 ± 0.0006 µM.
As for `COc1ccc(C(CCC2CCN(C(=O)c3cccc(NC4=NCC(O)CN4)c3)CC2)CC(=O)O)cn1` (stereo not drawn) [Cpd 10, 6-Methoxy-β-[2-[1-[3-[(1,4,5,6-tetrahydro-5-hydroxy-2-pyrimidinyl)amino]benzoyl]-4-piperidinyl]ethyl]-3-pyridinepropanoic acid], the IC50 at Human αvβ3 (read-out: αvβ3IC50) came to 0.0024 ± 0.0013 µM; on GP IIb/IIIa (read-out: αIIbβ3 IC50), 1.67 µM; on human purified αVβ5 (read-out: αvβ5 IC50), 0.0335 ± 0.0075 µM.
Regarding `O=C(O)CC(CCC1CCN(C(=O)c2cccc(NC3=NCCCC3)c2)CC1)c1cnc2ccccc2c1` (stereo not drawn) [Cpd 50, β-[2-[1-[3-[(3,4,5,6-tetrahydro-2-pyridinyl)amino]benzoyl]-4-piperidinyl]ethyl]-3-quinolinepropanoic acid], the IC50 was found to be 0.0156 ± 0.0044 µM on Human αvβ3 (read-out: αvβ3IC50), 0.19 ± 0.04 µM at GP IIb/IIIa (read-out: αIIbβ3 IC50) and 0.676 µM on human purified αVβ5 (read-out: αvβ5 IC50).
`O=C(O)CC(CC1CCN(C(=O)CCc2ccc3c(n2)NCCC3)CC1)C1CNc2ccccc2C1` (single isomer, unassigned) [Cpd 19-3, 1,2,3,4-tetrahydro-β-[[1-[1-oxo-3-(5,6,7,8-tetrahydro-1,8-naphthyridin-2-yl)propyl]-4-piperidinyl]methyl]-3-quinolinepropanoic acid]: the IC50 at Human αvβ3 (read-out: αvβ3IC50) was found to be 0.0447 ± 0.0204 µM; on human purified αVβ5 (read-out: αvβ5 IC50) it was 1.17 ± 0.02 µM.
Turning to `O=C(O)CC(CCC1CCN(C(=O)CCc2ccc3c(n2)NCCC3)CC1)c1cnc2ccccc2c1` (stereo not drawn) [Cpd 51, β-[2-[1-[1-oxo-3-(5,6,7,8-tetrahydro-1,8-naphthyridin-2-yl)propyl]-4-piperidinyl]ethyl]-3-quinolinepropanoic acid], the values for the IC50 on Human αvβ3 (read-out: αvβ3IC50), on GP IIb/IIIa (read-out: αIIbβ3 IC50) and at human purified αVβ5 (read-out: αvβ5 IC50) were 0.003 ± 0.0006 µM, 0.48 ± 0.01 µM and 0.169 ± 0.019 µM, respectively.
The corresponding values for `O=C(O)CC(CC1CCN(C(=O)CCc2ccc3c(n2)NCCC3)CC1)c1cccnc1` (stereo not drawn) [Cpd 45, β-[[1-[1-oxo-3-(5,6,7,8-tetrahydro-1,8-naphthyridin-2-yl)propyl]-4-piperidinyl]methyl]-3-pyridinepropanoic acid] are 0.0008 ± 0.0001 µM, 6.61 ± 2.85 µM and 0.0017 ± 0.0003 µM.
The like results for `CCCCCCCCOC(=O)CCCC1CCN(C(=O)CCc2ccc3c(n2)NCCC3)CC1` [Cpd 71, 4-[1-(3-5,6,7,8-Tetrahydro-[1,8]naphthyridin-2-yl-propionyl)-piperidin-4-yl]-butyric acid octyl ester] were, in that order, over 0.5 µM, over 50 µM and over 1 µM.
For the compound `O=C(O)CC(CC1CCN(C(=O)CCc2ccc3c(n2)NCCC3)CC1)c1cnc2ccccc2c1` (stereo not drawn) [Cpd 32, β-[[1-[1-oxo-3-(5,6,7,8-tetrahydro-1,8-naphthyridin-2-yl)propyl]-4-piperidinyl]methyl]-3-quinolinepropanoic acid], the IC50 stood at 0.0008 ± 0.0002 µM at Human αvβ3 (αvβ3IC50 (uM)), 1.05 ± 0.56 µM at GP IIb/IIIa (read-out: αIIbβ3 IC50) and 0.0022 ± 0.0007 µM on human purified αVβ5 (αvβ5 IC50 (uM)).
For the compound `CN1CC(C(CC(=O)O)CC2CCN(C(=O)CCc3ccc4c(n3)NCCC4)CC2)Cc2ccccc21` (racemic) [Cpd 67, N-Methyl-1,2,3,4-tetrahydro-β-[[1-[1-oxo-3-(5,6,7,8-tetrahydro-1,8-naphthyridin-2-yl)propyl]-4-piperidinyl]methyl]-3-quinolinepropanoic acid], the IC50 amounted to 0.048 ± 0.003 µM at Human αvβ3 (αvβ3IC50 (uM)), 7.82 µM at GP IIb/IIIa (read-out: αIIbβ3 IC50) and 0.176 ± 0.035 µM at human purified αVβ5 (αvβ5 IC50 (uM)).
With `O=C(O)CC(C1CCN(C(=O)CCCc2ccc3c(n2)NCCC3)CC1)C1CNc2ccccc2C1` (single isomer, unassigned) [Cpd 5-3, 1,2,3,4-Tetrahydro-β-[1-[1-oxo-4-(5,6,7,8-tetrahydro-1,8-naphthyridin-2-yl)butyl]-4-piperidinyl]-3-quinolinepropanoic acid], the IC50 is 0.161 µM at Human αvβ3 (αvβ3IC50 (uM)) and over 5 µM on human purified αVβ5 (read-out: αvβ5 IC50).
As for `O=C(O)CCC1CCN(C(=O)CCc2cccc(NC3=NCCCN3)c2)CC1` [Cpd 2, 1-[1-Oxo-3-[3-[(1,4,5,6-tetrahydro-2-pyrimidinyl)amino]phenyl]propyl]-4-piperidinepropanoic acid], the IC50 was determined as 5.4 µM at Human αvβ3 (read-out: αvβ3IC50) and 4.78 ± 1.01 µM on GP IIb/IIIa (read-out: αIIbβ3 IC50).
Regarding `O=C(O)CC(CCC1CCN(C(=O)CCCNc2ccccn2)CC1)c1cccnc1` (stereo not drawn) [Cpd 9, β-[2-[1-[1-Oxo-4-(2-pyridinylamino)butyl]-4-piperidinyl]ethyl]-3-pyridinepropanoic acid], the IC50 was over 1 µM on Human αvβ3 (read-out: αvβ3IC50) and 8.51 ± 2.36 µM on GP IIb/IIIa (read-out: αIIbβ3 IC50).
For the compound `O=C(O)CC(CC1CCN(C(=O)CCc2ccc3c(n2)NCCC3)CC1)c1ccc2ccccc2c1` (single isomer, unassigned) [Cpd 56b, 3-Naphthalen-2-yl-4-[1-(3-5,6,7,8-tetrahydro-[1,8]naphthyridin-2-yl-propionyl)-piperidin-4-yl]-butyric acid], the results for the IC50 on Human αvβ3 (read-out: αvβ3IC50) and on human purified αVβ5 (read-out: αvβ5 IC50) were 0.326 ± 0.0894 µM and 0.81 ± 0.104 µM, respectively.
